The source of these data is ChEMBL document CHEMBL1201862, “PubChem BioAssay data set” (2004).

Some test systems named below: SW-620; MOLT-4; NCI/ADR-RES; KM12; OVCAR-5; M14; RPMI-8226; IGROV-1; NCI-H23; SN12C; DU-145; U-251; LOX IMVI; CAKI-1; NCI-H226; A549; ACHN; UACC-257; NCI-H522.
Common to all, as to experiment: NCI-60 cell line screen, 48 h

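Dose response: 5 concentrations. Exposure: 48 h. Format: 96-well plates. Endpoint: linear interpolation; highest concentration if not reached. GI50 marks 50% less growth.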 The source made the active and inactive calls. Rule as the data show it: active = GI50 up to about 1.1 µM and inactive = higher.

For `N[C@H]1CCN(c2c(F)cc3c(=O)c(C(=O)O)cn4c3c2Oc2c-4ccc3c2ccc2ccccc23)C1`, the GI50 was 0.276 µM (active) in the test with SW-620; 0.0643 µM (active) in the test with MOLT-4; 2.8 µM (inactive) with NCI/ADR-RES; 1 µM (active) in the test on KM12; 1.58 µM (inactive) in the test with OVCAR-5; 2.15 µM (inactive) in the test on M14. Moreover, the GI50 is 0.226 µM (active) with RPMI-8226; 0.284 µM (active) in the test with IGROV-1; 1.22 µM (inactive) in the test on NCI-H23; 0.774 µM (active) in the test with SN12C; 0.942 µM (active) in the test with DU-145; 0.121 µM (active) in the test with U-251. Also, the GI50 in the test with LOX IMVI is 0.56 µM (active); in the test on CAKI-1, 2.79 µM (inactive); with NCI-H226 it was 4.02 µM (inactive); in the test on A549 it was 1.12 µM (inactive); with ACHN it was 0.23 µM (active); with UACC-257, 0.288 µM (active). For the same compound, the GI50 in the test with NCI-H522 is 0.498 µM (active).

Turning to `CC1=CC(=O)CC(C)(C)C1(O)/C=C/C(C)=C/C(=O)O` (stereo unspecified), the GI50 in the test with SW-620, in the test with MOLT-4, in the test with NCI/ADR-RES, in the test with KM12, in the test with OVCAR-5 and in the test on M14 was > 100 µM (inactive) in each case. For the same compound, the GI50 in the test on RPMI-8226, with IGROV-1, in the test on NCI-H23, with SN12C, in the test with DU-145 and in the test on U-251 was > 100 µM (inactive) in each case. In addition, the GI50 with LOX IMVI, in the test on CAKI-1, with NCI-H226, in the test with A549, with ACHN and in the test on UACC-257 was > 100 µM (inactive) throughout. Besides, the GI50 in the test with NCI-H522 was > 100 µM (inactive).

With `CC(C)NC(=O)OCc1c(COC(=O)NC(C)C)c(-c2cc[n+](COC(=O)C(C)C)cc2)n2c1CCC2`, the GI50 in the test on SW-620 was > 100 µM (inactive); in the test with MOLT-4 it was > 46.9 µM (inactive); in the test on NCI/ADR-RES, > 100 µM (inactive); in the test with KM12 it was > 100 µM (inactive); in the test on OVCAR-5 it was > 100 µM (inactive); in the test on M14, 99.5 µM (inactive). Further, the GI50 in the test with RPMI-8226 is > 100 µM (inactive); with IGROV-1, 30.1 µM (inactive); in the test with NCI-H23 it was > 90.4 µM (inactive); with SN12C it was 62.1 µM (inactive); in the test with DU-145, > 100 µM (inactive); with U-251 it was > 100 µM (inactive). Also, the GI50 in the test with LOX IMVI was > 50.7 µM (inactive); with CAKI-1 it was 20 µM (inactive); in the test with NCI-H226, > 100 µM (inactive); in the test with A549, > 100 µM (inactive); in the test with ACHN it was 12.2 µM (inactive); in the test with UACC-257 it was > 100 µM (inactive). Moreover, the GI50 in the test with NCI-H522 was > 72.1 µM (inactive).

With `CC(=O)O[C@H]1CC[C@@]2(C)C(=CC[C@@H]3[C@@H]2CC[C@]2(C)C(=N/O)/C(=C\c4ccccc4)C[C@@H]32)C1`, the GI50 in the test with SW-620 was 20.9 µM (inactive); in the test on MOLT-4, 3.08 µM (inactive); in the test with NCI/ADR-RES it was 7.08 µM (inactive); in the test with KM12 it was 3.2 µM (inactive); with OVCAR-5, 17.1 µM (inactive); with M14, 4.9 µM (inactive). Besides, the GI50 in the test on RPMI-8226 is 33.7 µM (inactive); in the test with IGROV-1, 44.2 µM (inactive); with NCI-H23, 16.3 µM (inactive); in the test on SN12C, 14.8 µM (inactive); in the test on DU-145, 23.4 µM (inactive); in the test with U-251, 24.9 µM (inactive). In addition, the GI50 in the test on LOX IMVI is 9.14 µM (inactive); in the test on CAKI-1, 24.7 µM (inactive); in the test on NCI-H226, 12.5 µM (inactive); in the test with A549 it was 14.4 µM (inactive); with ACHN it was 23.6 µM (inactive); with UACC-257, 6.52 µM (inactive). For the same compound, in the test with NCI-H522, the GI50 was 3.53 µM (inactive).
